Experimental data as given in ChEMBL document CHEMBL1201862, “PubChem BioAssay data set” (2004).
Active and inactive are the calls of the source.

Key:
Kallikrein-7 = Kallikrein-7 (Homo sapiens, UniProt P49862); test: Fluorescence Intensity-based biochemical primary high throughput dose response assay to identify activators of kallikrein-7 (K7) zymogen.
[1] = molecular target: T1, Sentrin-specific protease 8 (Homo sapiens, UniProt Q96LD8); assay type: functional
T1 sequence (Q96LD8 whole entry): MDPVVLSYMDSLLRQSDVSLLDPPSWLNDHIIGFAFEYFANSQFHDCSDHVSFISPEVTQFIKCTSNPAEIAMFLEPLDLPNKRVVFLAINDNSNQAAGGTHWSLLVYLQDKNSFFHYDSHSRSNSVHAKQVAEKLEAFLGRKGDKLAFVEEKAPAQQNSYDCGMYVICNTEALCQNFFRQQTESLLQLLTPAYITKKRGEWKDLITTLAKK

[2] = molecular target: T1, Sentrin-specific protease 8; assay type: functional; remark: listed apart in the source
[3] = cytotoxicity toward NIH3T3 fibroblasts, dose response, counter-screen, cell-based, ATP luminescence, mouse fibroblasts (AID 2010); assay type: functional;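 further: cells exposed to compound for about 90 hours before reading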
Albumin = Albumin (Bos taurus, UniProt P02769); test: Counterscreen for inhibitors of T-cell receptor (TCR)-CD3 interaction: Fluorescence-based biochemical high throughput dose response assay to identify inhibitors of T-cell receptor (TCR)-CD3 interaction using a TAMRA-labeled BSA probe.; assay type: functional
[4] = inhibitors of intracellular T. cruzi replication, confirmation, NIH3T3 host cells, beta-gal luminescence (AID 2044); assay type: functional, cell-based;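 further: intracellular parasites grown in NIH/3T3 mouse fibroblasts as host cells; luminescent beta-galactosidase reporter signal from transgenic T. cruzi replicating inside host cells; inhibitors lower the luminescence signal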
[5] = molecular target: T2, Oxysterols receptor LXR-beta (Homo sapiens, UniProt P55055); assay type: functional, cell-based;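 further: Cell-based luminescence dose-response assay of agonist activity at LXR, run as a confirmatory counterscreen to a daf-12 agonist screen; HEK293 cells with Gal4-LXR fusion and GAL4-driven luciferase reporter; agonist potency from rising luciferase signal of a Gal4-LXR reporter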
T2 sequence (P55055 whole entry): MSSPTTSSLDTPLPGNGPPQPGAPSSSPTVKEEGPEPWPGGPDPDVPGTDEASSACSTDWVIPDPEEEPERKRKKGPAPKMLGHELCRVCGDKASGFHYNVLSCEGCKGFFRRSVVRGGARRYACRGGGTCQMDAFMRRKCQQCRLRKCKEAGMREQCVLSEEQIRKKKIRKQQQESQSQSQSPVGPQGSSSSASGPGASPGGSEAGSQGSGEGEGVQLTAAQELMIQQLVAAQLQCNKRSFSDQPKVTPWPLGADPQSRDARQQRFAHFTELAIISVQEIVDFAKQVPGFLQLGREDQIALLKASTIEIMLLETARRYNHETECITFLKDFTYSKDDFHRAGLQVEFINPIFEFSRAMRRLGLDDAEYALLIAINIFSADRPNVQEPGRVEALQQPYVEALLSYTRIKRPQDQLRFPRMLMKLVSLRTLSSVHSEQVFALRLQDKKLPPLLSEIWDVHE

[6] = HEK293T cytotoxicity, dose response, cytotoxicity control for miR-122 modulator project, cell-based, activator set, cherry-pick (AID 720690); assay type: functional;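 further: HEK293T human cells scored for general mammalian cytotoxicity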
[7] = HEK293T cytotoxicity, dose response, cytotoxicity control for miR-122 modulator project, cell-based, inhibitor set, cherry-pick, set 2 (AID 720697); assay type: functional
[8] = molecular target: Metabotropic glutamate receptor 3 (Rattus norvegicus, UniProt P31422); test: mGlu3 negative allosteric modulator potency, dose response, HEK/GIRK cells, thallium flux, rat (AID 651839); assay type: functional
[9] = CEM21 lymphoblast cell cytotoxicity, dose response, cytotoxicity control for viral fusion inhibitor project, CellTiter-Glo luminescence, cherry-picked (AID 652042); assay type: functional, cell-based;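 further: potency for signal decrease meaning cytotoxicity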
[10] = inhibitors of HIV Env-driven cell fusion, dose response, cherry-pick (AID 652057); assay type: functional, cell-based
[11] = inhibitors of clade B AD8 Env fusion, dose response, cell-based, cherry-pick (AID 652062); assay type: functional;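 further: luciferase signal from cell-cell fusion driven by HIV-1 clade B AD8 Env; potency is for inhibitors of fusion seen as a drop in luminescence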
[12] = ZM109 Env clade C HIV-1 fusion inhibitors, dose response, HeLa effector, CEM target cells, luciferase, cherry-pick (AID 652058); assay type: functional, cell-based
[13] = off-target signal loss in HeLa-CEM21 co-culture – HeLa F-luc CTL cells, cherry-picked, counter-screen for HIV-1 Env fusion inhibitor project, dose response (AID 652040); assay type: functional, cell-based;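 further: potency for signal decrease marking cytotoxic or nonspecific inhibition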
[14] = NIH:OVCAR-3 ovarian cancer cell cytotoxicity, dose response, PAX8 inhibitor project, plate reader, dry powder samples (AID 743044); assay type: functional, cell-based
[15] = cytotoxicity in OVCAR8 ovarian cancer cells, dose response, PAX8 project, cell-based, plate reader, dry powder samples (AID 743197); assay type: functional; details: OVCAR-8
Paired box protein Pax-8 = Paired box protein Pax-8 (Homo sapiens, UniProt Q06710); test: inhibitors of PAX8-driven TPO luciferase reporter, dose response, RMG-I cells, cherry-pick (AID 687027); assay type: functional, cell-based;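 further: luciferase reporter driven by Pax8 target thyroperoxidase promoter measured by SteadyGlo luminescence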
Paired box protein Pax-8, sequence (Q06710 whole entry): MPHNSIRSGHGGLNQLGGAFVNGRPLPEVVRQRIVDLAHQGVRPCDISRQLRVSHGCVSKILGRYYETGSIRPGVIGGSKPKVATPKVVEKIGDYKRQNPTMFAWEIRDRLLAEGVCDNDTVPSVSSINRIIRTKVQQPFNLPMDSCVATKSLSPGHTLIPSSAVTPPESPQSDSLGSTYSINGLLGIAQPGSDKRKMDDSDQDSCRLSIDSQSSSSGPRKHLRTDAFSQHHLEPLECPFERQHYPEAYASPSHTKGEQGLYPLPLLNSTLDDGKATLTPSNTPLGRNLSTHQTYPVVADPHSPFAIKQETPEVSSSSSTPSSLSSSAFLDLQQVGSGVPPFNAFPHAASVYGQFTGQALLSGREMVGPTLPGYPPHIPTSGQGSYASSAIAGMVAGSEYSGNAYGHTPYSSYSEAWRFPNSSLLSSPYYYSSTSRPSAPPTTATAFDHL

Kallikrein-7, sequence (P49862 whole entry): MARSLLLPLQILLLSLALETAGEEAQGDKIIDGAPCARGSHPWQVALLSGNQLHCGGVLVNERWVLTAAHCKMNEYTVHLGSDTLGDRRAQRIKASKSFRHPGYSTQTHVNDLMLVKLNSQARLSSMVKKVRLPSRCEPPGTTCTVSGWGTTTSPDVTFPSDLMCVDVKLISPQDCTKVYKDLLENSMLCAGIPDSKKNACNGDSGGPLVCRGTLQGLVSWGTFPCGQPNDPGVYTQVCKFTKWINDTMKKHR
Albumin, sequence (P02769 whole entry): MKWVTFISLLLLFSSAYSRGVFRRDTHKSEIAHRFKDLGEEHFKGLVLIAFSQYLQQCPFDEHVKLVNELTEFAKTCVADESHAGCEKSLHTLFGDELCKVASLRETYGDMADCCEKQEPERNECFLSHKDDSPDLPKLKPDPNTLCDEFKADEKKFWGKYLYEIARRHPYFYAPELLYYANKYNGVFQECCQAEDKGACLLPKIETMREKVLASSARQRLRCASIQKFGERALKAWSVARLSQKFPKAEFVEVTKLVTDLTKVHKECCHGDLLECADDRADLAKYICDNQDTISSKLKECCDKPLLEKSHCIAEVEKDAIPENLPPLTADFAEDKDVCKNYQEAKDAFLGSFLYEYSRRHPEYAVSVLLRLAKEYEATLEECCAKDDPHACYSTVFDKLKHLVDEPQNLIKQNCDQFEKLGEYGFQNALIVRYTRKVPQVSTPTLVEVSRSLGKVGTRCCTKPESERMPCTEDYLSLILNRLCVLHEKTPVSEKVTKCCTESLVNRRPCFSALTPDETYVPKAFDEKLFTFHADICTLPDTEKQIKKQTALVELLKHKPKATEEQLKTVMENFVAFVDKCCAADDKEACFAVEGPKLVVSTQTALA
Metabotropic glutamate receptor 3, sequence (P31422 whole entry, the tested form may be a part): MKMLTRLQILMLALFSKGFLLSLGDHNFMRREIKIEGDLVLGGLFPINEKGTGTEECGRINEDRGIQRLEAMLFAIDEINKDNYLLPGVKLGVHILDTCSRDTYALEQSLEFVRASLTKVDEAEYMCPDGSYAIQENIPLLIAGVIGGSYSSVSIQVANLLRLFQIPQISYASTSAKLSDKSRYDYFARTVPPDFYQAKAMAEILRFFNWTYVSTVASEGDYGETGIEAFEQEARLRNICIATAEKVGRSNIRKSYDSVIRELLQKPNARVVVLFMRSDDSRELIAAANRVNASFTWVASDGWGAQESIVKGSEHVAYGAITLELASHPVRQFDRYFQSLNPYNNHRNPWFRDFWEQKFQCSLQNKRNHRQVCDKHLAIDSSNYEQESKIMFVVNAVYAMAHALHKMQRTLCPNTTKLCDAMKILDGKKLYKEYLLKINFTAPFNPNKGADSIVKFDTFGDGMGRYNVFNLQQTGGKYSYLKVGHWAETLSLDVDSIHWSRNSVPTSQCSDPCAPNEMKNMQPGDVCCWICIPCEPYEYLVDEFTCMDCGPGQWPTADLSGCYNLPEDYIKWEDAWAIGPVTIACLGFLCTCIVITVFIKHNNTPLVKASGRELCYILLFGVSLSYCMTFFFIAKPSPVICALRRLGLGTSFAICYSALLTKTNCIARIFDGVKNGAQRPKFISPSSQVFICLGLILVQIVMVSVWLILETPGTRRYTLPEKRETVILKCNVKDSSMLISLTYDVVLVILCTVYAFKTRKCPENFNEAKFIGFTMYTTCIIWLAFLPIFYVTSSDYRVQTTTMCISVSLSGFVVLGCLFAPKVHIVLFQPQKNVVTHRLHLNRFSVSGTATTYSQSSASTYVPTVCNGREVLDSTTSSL

For `Cc1cccc2c(C(=O)O)c3cccc(C)c3nc12`, which EC50 (Kallikrein-7) is on record?
Its EC50 is > 69.5 µM (inactive).

With `CCC(=O)c1ccc(OCc2cn(CC(=O)c3ccc(O)cc3)nn2)cc1` as the compound, how does the IC50 [1] read?
Its IC50 is 7.63 µM (active).

What about the IC50 [2] of the same compound?
The IC50 was 12.5 µM (active).

Which EC50 [3] does the source give for `COc1ccc(NS(=O)(=O)c2cc(NC(=O)/C=C/c3cc(OC)c(OC)c(OC)c3)ccc2N2CCCCC2)cc1` here?
The EC50 was > 60 µM (not active).

And the IC50 (Albumin)?
The IC50 was > 94.1 µM (inactive).

What about the EC50 [4] of the same compound?
The EC50 was 1.63 µM (active).

What does the source list for `Cc1cc(C(=O)Cn2nnc3ccccc3c2=O)c(C)n1Cc1cccs1`?
EC50 [5]: > 67.6 µM (inactive); EC50 (cells): > 67.6 µM (inactive)

With `CC(C)N(C[C@@H]1N[C@@H](CO)[C@@H]1c1ccccc1)S(=O)(=O)c1ccccc1` as the compound, how does the AC50 [6] read?
The AC50 was 32.2 µM (active).

What about the AC50 [7] of the same compound?
The AC50 was 473 nM (active).

For `COc1ncc(-c2ccc3cc(C(=O)N4CCCC(CO)C4)ccc3c2)cn1` (stereo unspecified), which IC50 [8] is on record?
Its IC50 is 2170 nM.

Which AC50 [9] does the source give for `CCOc1cccc(-c2nnc3sc(C4CCCCC4)nn23)c1` here?
The AC50 was 49.9 µM (active).

What about the AC50 [10] of the same compound?
The AC50 was 5.97 µM (active).

And the AC50 [11]?
Its AC50 is 7.17 µM (active).

What about the AC50 [12] of the same compound?
The AC50 was 21.4 µM (active).

And the AC50 [13]?
Its AC50 is 46 µM (active).

For `C[C@@H]1CN([C@H](C)CO)C(=O)c2cc(NC(=O)Cc3ccccc3)ccc2O[C@@H](C)CCCCO[C@H]1CN(C)Cc1ccc(C(F)(F)F)cc1`, which AC50 [14] is on record?
Its AC50 is 3.83 µM (active).

And the AC50 [6]?
The AC50 was 13.8 µM (active).

And the AC50 [15]?
The AC50 was 63.1 µM (active).

What about the AC50 (Paired box protein Pax-8) of the same compound?
The AC50 was 3.98 µM (active).

What about the AC50 [7] of the same compound?
The AC50 was 795 nM (active).
